Consider 73 molecules from PubChem BioAssay AID1996.

SMILES strings stand for the structures. ≈ marks a conversion by molar mass, not a printed value.

The conditions of this data set: buffer; pH 7.4; 200.0 µM.
On to `COC(=O)c1c(NC(=O)C(C)(C)C)csc1C`, for which the kinetic solubility (usually the concentration staying in solution when a stock, usually in DMSO, is diluted into the medium) came to 18.1 µg/mL (≈ 70.9 µM).

Take `c1cncc(CNc2nc(-c3cccnc3)nc3ccccc23)c1`: the solubility (kinetic) is > 47 µg/mL. `Cc1ccc(NC(=O)c2ccc(Cl)nc2)cc1S(=O)(=O)N1CCOCC1` registered a solubility (kinetic) of 12.4 µg/mL (≈ 31.3 µM). As for `COCc1cc(C)nc2oc(C(=O)c3ccccc3)c(N)c12`, the figure is 8.4 µg/mL (≈ 28.3 µM); as for `Cc1onc(-c2c(Cl)cccc2Cl)c1C(=O)O/N=C(\C#N)c1c(Cl)cccc1Cl`, 62.9 µg/mL (≈ 134 µM). As for `CCCNC(=O)CNC(=S)N(Cc1ccccc1F)C1CCCCC1`, the figure is 42.3 µg/mL (≈ 116 µM). Next, `CC(=O)C1=C(C)OC(N)=C(C#N)C1c1cc([N+](=O)[O-])ccc1Cl` (stereo not drawn): 41.9 µg/mL (≈ 126 µM); `COCCOc1ccc(C(F)(F)F)cc1NC(=O)COC(=O)c1ccc(N2CCCC2=O)cc1`: 3 µg/mL (≈ 6.24 µM). On to `COc1ccc(NC(=O)COC(=O)C2CCN(C(=O)c3ccc(Cl)cc3)CC2)c([N+](=O)[O-])c1`, for which the solubility (kinetic) is 22.4 µg/mL (≈ 47.1 µM). As for `Cc1ccc(C(=O)OCC(=O)N(Cc2ccccc2)C(C)C)cc1C`, the figure is 16.8 µg/mL (≈ 49.5 µM); as for `CCC(=O)NCCc1nc2cc(NC(=O)c3ccco3)ccc2n1C`, 48 µg/mL (≈ 141 µM); as for `CCC1CCC/C1=N\NC(=O)c1ccc(Cl)cc1` (stereo not drawn), > 39.7 µg/mL. Next, `Cc1ccc(NC(=O)CN(C)C(=O)c2ccccn2)cc1`: > 42.5 µg/mL; `COC(=O)C1=C(C)NC(=O)NC1c1ccc2ccccc2c1` (stereo not drawn): < 0.3 µg/mL. Next, `CC(C)Cn1cnc2c1c(=O)n(C)c(=O)n2C`: > 35.4 µg/mL; `O=S(=O)(N=C(NS(=O)(=O)c1ccc(Cl)cc1)c1ccccc1)c1ccc(Cl)cc1`: > 70.4 µg/mL.

Regarding `N#CCCN(Cc1cccnc1)C(=S)NC(=O)c1ccccc1`, the kinetic solubility was > 48.7 µg/mL. As for `Cc1ccccc1-n1c(C)c(C#N)c(=O)c(-[n+]2ccccc2)c1[S-]`, the figure is 45.5 µg/mL (≈ 136 µM).

Consider `COc1ccc(C(=O)O)cc1S(=O)(=O)N1CCN(Cc2ccc3c(c2)OCO3)CC1`, for which the kinetic solubility is > 65.2 µg/mL.

Take `COc1cccc(NC(=O)C2CC(=O)N(Cc3ccc(C)cc3)C2)c1` (stereo not drawn): the solubility (kinetic) stood at 9.3 µg/mL (≈ 27.5 µM).

In the case of `O=C(CCc1ccccc1)Nc1cccc(S(=O)(=O)N2CCOCC2)c1`, the kinetic solubility came to 50.6 µg/mL (≈ 135 µM). Next, `C=CCON1C(=O)C(=O)N(OCC=C)[C@H]2CCCC[C@H]21`: > 42 µg/mL; `Cn1cnnc1SCC(=O)Nc1ccc(OC(F)F)cc1`: > 47.1 µg/mL. As for `CCS(=O)(=O)c1nc2ccccc2n1Cc1ccccn1`, the figure is > 45.2 µg/mL; as for `O=C(O)COCC(=O)NCc1csc2ccc(Cl)cc12`, > 47.1 µg/mL. As for `CC1(C)CSC(=NCCc2ccccc2)N1`, the figure is > 35.2 µg/mL; as for `CCOC(=O)c1oc2nc3c(cc2c1N)CCCC3`, 10.4 µg/mL (≈ 40 µM); as for `CCc1ccc(OCC(=O)OC(C)C(=O)NC2CC2)cc1` (stereo not drawn), > 43.7 µg/mL.

Take `O=C(COc1ccccc1Cl)Nc1cccnc1`: the kinetic solubility was determined as 33.7 µg/mL (≈ 128 µM). Next, `Cc1ccc(C2(C)NC(=O)N(CC(=O)N3CC(=O)Nc4ccccc43)C2=O)cc1` (stereo not drawn): 0.4 µg/mL (≈ 1.02 µM); `CC(C)c1ccc2oc(=O)cc(CN3CCOCC3)c2c1`: 41.9 µg/mL (≈ 146 µM). As for `COC(=O)CC(c1ccc(F)cc1)n1c(C)ccc1C` (stereo not drawn), the figure is 15.7 µg/mL (≈ 57 µM); as for `CCc1cccc(NS(=O)(=O)c2ccc3c(c2)NC(=O)CC(=O)N3)c1`, > 53.9 µg/mL.

With `COc1ccc(C2/C(=C(/O)c3ccc(F)cc3)C(=O)C(=O)N2CCCN2CCOCC2)cc1OC` (stereo not drawn), the solubility (kinetic) is > 72.7 µg/mL.

The molecule `CC(NC(=O)Cc1ccc(Br)cc1)c1ccccc1` (stereo not drawn) yielded a solubility (kinetic) of 9.7 µg/mL (≈ 30.5 µM). As for `N#CC1(CCCN2CCCCC2)c2ccccc2CCc2ccccc21.O=C(O)C(=O)O`, the figure is > 65.2 µg/mL.

In the case of `COc1cccc(NC(=O)COC(=O)CCC2CCCC2)c1`, the solubility (kinetic) was > 45.8 µg/mL. On to `CN(C)C(=O)Oc1ccc2c(c1)O/C(=C\c1cccc(Cl)c1)C2=O`, for which the solubility (kinetic) was < 0.7 µg/mL. As for `CCOC(=O)C(Cc1c(F)cccc1Cl)c1ccno1` (stereo not drawn), the figure is 29.6 µg/mL (≈ 99.4 µM). Next, `CCOc1nc(CC(C)C)c2c(c1C#N)CC(C)(C)OC2`: 2.4 µg/mL (≈ 8.32 µM); `O=C(O)c1ccccc1C(=O)Nc1nc(-c2ccc3ccccc3c2)cs1`: > 56.2 µg/mL; `Cn1c(=O)c2c(nc(N3CCCC3)n2C)n(C)c1=O`: > 39.5 µg/mL. As for `O=C(Nc1ccccn1)c1ccc2ccccc2c1O`, the figure is 31.4 µg/mL (≈ 119 µM); as for `Nc1c(C(=O)N2CCCC2)sc2nc(-c3ccccc3)ccc12`, 2.1 µg/mL (≈ 6.49 µM). `O=C(COC(=O)COc1ccccc1)Nc1ccc2c(c1)OCCO2` registered a solubility (kinetic) of 15.3 µg/mL (≈ 44.6 µM).

Consider `Cn1cccc1/C=C1/C(=O)NC(=O)N(C(C)(C)C)C1=O`, for which the kinetic solubility amounted to 37.1 µg/mL (≈ 135 µM). Next, `Cc1ccc(S(=O)(=O)NCCc2ccncc2)cc1C`: > 43.6 µg/mL; `COc1cc(NC(=O)CSCc2ccccc2)c(C(=O)O)cc1OC`: 52.6 µg/mL (≈ 146 µM); `O=C1CCC(=O)N1CCSC(=S)N1CCOCC1`: > 43.3 µg/mL. Turning to `Cc1cc(=O)[nH]c(Nc2ccc(N(C)C)cc2)n1`, the kinetic solubility is > 36.6 µg/mL.

Molecule `Cc1cc(=O)[nH]c(=O)n1Cc1ccccc1` gave a solubility (kinetic) of 19.2 µg/mL (≈ 88.8 µM). Next, `Cc1ccsc1C1C(C#N)=C(N)N(N(C)C)C2=C1C(=O)CCC2` (stereo not drawn): > 49.3 µg/mL; `CCc1ccc(NC(=O)NC(C)c2ccc3c(c2)OCO3)cc1` (stereo not drawn): 1 µg/mL (≈ 3.2 µM); `Cc1cccc(C(=O)OCC(=O)NC(=O)c2ccccc2)c1O`: < 0.7 µg/mL. Next, `O=Cc1c(-c2ccc(F)cc2)nc2ccccn12`: 2.5 µg/mL (≈ 10.4 µM); `COc1ccccc1NC(=O)Nc1ccc(C)cn1`: 0.8 µg/mL (≈ 3.11 µM); `O=Cc1c(NCc2ccc(Cl)cc2)c2ccccc2[nH]c1=O`: 2.8 µg/mL (≈ 8.95 µM). As for `CCn1ccc(C(=O)N2CCN(c3ncccn3)CC2)n1`, the figure is > 43 µg/mL; as for `Cc1cc(C)c2c(N)c(C(=O)N3CCc4ccccc4C3)sc2n1`, 5.5 µg/mL (≈ 16.3 µM). Take `CCN(C(=O)COC(=O)c1ccco1)c1cccc2ccccc12`: the kinetic solubility was determined as 47.4 µg/mL (≈ 147 µM). As for `CCOc1ccc(CN(C)C(=O)c2cc3ccccc3o2)cc1OC`, the figure is > 50.9 µg/mL. In turn, `CC(C(=O)Nc1ccc(F)c(F)c1F)N(C)Cc1cccs1` (stereo not drawn) displayed a kinetic solubility of 13.6 µg/mL (≈ 41.4 µM). Next, `Cc1cc(NCc2ccc(F)cc2)nc2cc(Cl)ccc12`: 0.8 µg/mL (≈ 2.66 µM); `COc1cccc2cc(-c3ccnc(N)n3)oc12`: 2.6 µg/mL (≈ 10.8 µM); `CCOC(=O)c1ccc(S(=O)(=O)NCCNCc2ccccc2)cc1.Cl`: > 59.8 µg/mL. Next, `Cc1ccc(NC(=O)CN(C)Cc2c(O)ccc3ccccc23)cc1`: 23.7 µg/mL (≈ 70.9 µM); `Cc1csc(NC(=O)CSc2nccn2C)n1`: > 40.3 µg/mL; `O=S(=O)(Nc1ccccn1)c1ccc(Cl)c2ccccc12`: 1.4 µg/mL (≈ 4.39 µM).

Regarding `Cc1ccc(S(=O)(=O)N2CCCC(C(=O)NCC3CCCO3)C2)cc1` (stereo not drawn), the solubility (kinetic) is > 55 µg/mL.

Turning to `CC1CCCCC1NC(=S)Nc1ccc(Cl)cc1Cl` (stereo not drawn), the solubility (kinetic) was determined as 1 µg/mL (≈ 3.15 µM). As for `Cc1ccccc1N1CCN(CCCN2C(=O)C3CCCCN3C2=O)CC1` (stereo not drawn), the figure is 40.7 µg/mL (≈ 110 µM). As for `N#Cc1ccccc1N/C=C/C(=O)c1ccc(Cl)cc1`, the figure is 0.8 µg/mL (≈ 2.83 µM); as for `O=C(NC1CCOc2ccccc21)c1ccc(=O)[nH]c1` (stereo not drawn), > 40.5 µg/mL.
